We go through four molecules from DBAASP.

Holding throughout (test): ≥ marks a high value that may be exact or a test limit, other limits are often not marked, values filed in µg/mL are converted to µM
Assay [1] has as its system Acinetobacter baumannii 4-MRGN.
Assay [2] concerns Enterococcus faecium.
Assay [3] has as its system Pseudomonas aeruginosa ATCC 27853.
Assay [4] relates to Acinetobacter baumannii ATCC 17978.
The subject of assay [5] is Aspergillus flavus ATCC MYA-3651.
Assay [6] relates to Aspergillus fumigatus.
Assay [7] has as its system Candida albicans NRRL Y-326.
Assay [8] concerns Candida krusei NRRL Y-27803.
Assay [9] has as its system Candida parapsilosis NRRL Y-1761.
Assay [10] concerns Enterobacter cloacae.
Assay [11] concerns Escherichia coli ATCC 25922.
Assay [12] deals with Fusarium solani NRRL 28548.
For assay [13], the system named is Klebsiella pneumoniae ATCC 10031.
The test system of assay [14] is Lichtheimia corymbifera NRRL 6251.
Assay [15] deals with Mucor circinelloides NRRL 3631.
The test system of assay [16] is Pseudomonas aeruginosa ATCC 19660.
The subject of assay [17] is Staphylococcus aureus ATCC 25923.
In assay [18] the test system is Staphylococcus aureus ATCC 33592.
Assay [19] concerns Staphylococcus aureus MR.
The test system of assay [20] is Staphylococcus aureus.
In assay [21] the test system is Staphylococcus epidermidis ATCC 51625.
Assay [22] has as its system Acinetobacter baumannii ATCC BAA-1605.
The test system of assay [23] is Acinetobacter baumannii KCCM 1053.
For assay [24], the system named is Bacillus subtilis KCTC 3068.
Assay [25] deals with Enterococcus faecalis ATCC 51575.
Assay [26] has as its system Enterococcus faecalis KCCM 11814.
Assay [27] relates to Escherichia coli KCTC 1682.
Assay [28] deals with Pseudomonas aeruginosa CCARM 2180.
Assay [29] relates to Pseudomonas aeruginosa KCTC 1637.
For assay [30], the system named is Salmonella typhimurium KCTC 1926.
Assay [31] relates to Staphylococcus aureus KCCM 40510.
The subject of assay [32] is Staphylococcus aureus KCTC 1621.
Assay [33] relates to Staphylococcus epidermidis KCTC 1917.
In assay [34] the test system is Bacillus subtilis 168.
The subject of assay [35] is Candida albicans ATCC 10231.
Assay [36] has as its system Candida glabrata ATCC 2001.
Assay [37] deals with Candida tropicalis ATCC 13803.
The subject of assay [38] is Klebsiella pneumoniae ATCC 13883.
Assay [39] relates to Pseudomonas aeruginosa PAO1.
Assay [40] deals with Staphylococcus aureus MU50.
The test system of assay [41] is Staphylococcus aureus Newman.
Assay [42] has as its system Staphylococcus aureus UAMS-1.
In assay [43] the test system is Staphylococcus aureus USA 200.
Assay [44] relates to Staphylococcus aureus USA 300.
Assay [45] concerns Staphylococcus aureus USA 400.
Assay [46] relates to Staphylococcus epidermidis 1457.

Usually MIC stands for the lowest concentration that inhibits growth of the organism. Lower therefore signals greater potency.

Molecules are shown by their SMILES. ≈ marks a conversion by molar mass, not a printed value. Where “and” joins values, the source holds several entries; their conditions need not be identical. Equal values may be shown once.

In the case of `CC[C@H](C)[C@H](NC(=O)[C@H](CCC(=O)O)NC(=O)[C@@H]1CSSC[C@@H]2NC(=O)[C@H](Cc3ccc(O)cc3)NC(=O)[C@@H](NC(=O)[C@@H](NC(=O)[C@H](C)N)[C@@H](C)O)CSSC[C@H](NC(=O)[C@H](CCCN=C(N)N)NC(=O)CNC(=O)[C@H]([C@@H](C)O)NC(=O)[C@H](CCCN=C(N)N)NC2=O)C(=O)N[C@@H](C)C(=O)N[C@@H]([C@@H](C)O)C(=O)N[C@@H](CCCN=C(N)N)C(=O)N[C@@H](CCC(=O)O)C(=O)N[C@@H](CO)C(=O)N[C@@H](CC(C)C)C(=O)N[C@@H](CO)C(=O)NCC(=O)N[C@@H](C(C)C)C(=O)N1)C(=O)N[C@@H](CO)C(=O)NCC(=O)N[C@@H](CCCN=C(N)N)C(=O)N[C@@H](CC(C)C)C(=O)N[C@@H](Cc1ccc(O)cc1)C(=O)N[C@@H](CCCN=C(N)N)C(=O)O` [ATCYCRTGRCATRESLSGVCEISGRLYR], the minimal inhibitory concentration (MIC) is at least 99.9 µM in [1], at least 99.9 µM in [2] and above 99.9 µM in [3].
`CC[C@H](C)[C@H](NC(=O)[C@H](CCCCN)NC(=O)[C@H](C)NC(=O)[C@H](CCCN=C(N)N)NC(=O)[C@H](CC(C)C)NC(=O)[C@H](CCCN=C(N)N)NC(=O)[C@@H](NC(=O)[C@H](CCCCN)NC(=O)[C@@H](NC(=O)[C@H](CCCCN)NC(=O)[C@H](C)NC(=O)[C@H](CCCN=C(N)N)NC(=O)[C@H](CC(C)C)NC(=O)[C@H](CCCCN)NC(=O)[C@@H](N)Cc1ccccc1)[C@@H](C)CC)C(C)C)C(=O)N[C@@H](CCCCN)C(=O)N[C@@H](CC(C)C)C(N)=O` [FKLRAKIKVRLRAKIKL]: the MIC was 7.69 µM (≈ 16 µg/mL) in assay [4]; at least 61.5 µM in [5]; at least 43.5 µM in assay [6]; 30.7 µM (≈ 64 µg/mL) in assay [7]; 30.7 µM (≈ 64 µg/mL) in [8]; 30.7 µM (≈ 64 µg/mL) in assay [9]. Besides, the MIC in assay [10] is 2.72 µM (≈ 5.65 µg/mL); in [11] it was 2.88 µM (≈ 6 µg/mL); in assay [12], 0.961 µM (≈ 2 µg/mL); in assay [13] it was 15.4 µM (≈ 32 µg/mL); in [14], 0.961 µM (≈ 2 µg/mL); in assay [15], at least 61.5 µM. For the same molecule, the MIC in assay [16] is 15.4 µM (≈ 32 µg/mL); in [3], 2.88 µM and 7.69 µM; in [17] it was 2.88 µM (≈ 6 µg/mL); in [18], 3.84 µM (≈ 8 µg/mL); in assay [19] it was 3.84 µM (≈ 8 µg/mL); in assay [20], 2.72 µM (≈ 5.65 µg/mL). Besides, the minimal inhibitory concentration (MIC) in assay [21] was 1.92 µM (≈ 4 µg/mL).
With `CC[C@H](C)[C@@H]1NC(=O)[C@H](CCCN=C(N)N)NC(=O)[C@@H](NC(=O)[C@H](CC(C)C)NC(=O)[C@@H](N)CCCN=C(N)N)CSSC[C@@H](C(=O)N[C@@H](CCCN=C(N)N)C(=O)O)NC(=O)[C@H](Cc2c[nH]c3ccccc23)NC(=O)[C@H](CCCN=C(N)N)NC(=O)[C@H]([C@@H](C)CC)NC(=O)[C@H](Cc2c[nH]c3ccccc23)NC(=O)[C@H](Cc2c[nH]c3ccccc23)NC1=O` [RLCRIWWIRWCR], the minimal inhibitory concentration (MIC) in assay [22] was at least 64 µM; in [23], 22.6 µM (≈ 39.5 µg/mL); in assay [24], at least 32 µM; in assay [25], 11.3 µM (≈ 19.7 µg/mL); in [26], at least 32 µM; in assay [27] it was 2.83 µM (≈ 4.94 µg/mL). In addition, the minimum inhibitory concentration (MIC) is at least 64 µM in assay [28]; 4 µM (≈ 6.98 µg/mL) in assay [29]; 8 µM (≈ 14 µg/mL) in assay [30]; 22.6 µM (≈ 39.5 µg/mL) in assay [31]; 16 µM (≈ 27.9 µg/mL) in assay [32]; 8 µM (≈ 14 µg/mL) in [33].
In the case of `CC[C@H](C)[C@H](NC(=O)[C@@H](NC(=O)[C@@H]1CCCN1C(=O)[C@H](CC(C)C)NC(=O)[C@@H](NC(=O)[C@@H](N)CO)[C@@H](C)CC)[C@@H](C)O)C(=O)N[C@H](C(=O)N[C@@H](CO)C(=O)N[C@@H](Cc1ccccc1)C(=O)N[C@@H](CC(C)C)C(=O)N[C@@H](CO)C(=O)N[C@@H](CCCCN)C(=O)N[C@H](C(=O)N[C@@H](Cc1ccccc1)C(N)=O)C(C)C)C(C)C` [SILPTIVSFLSKVF], the MIC is 6.3 µM (≈ 9.76 µg/mL) in [34]; 12.5 µM (≈ 19.4 µg/mL) in assay [35]; 12.5 µM (≈ 19.4 µg/mL) in assay [36]; 3.1 µM (≈ 4.8 µg/mL) in assay [37]; above 50 µM in [11]; at least 50 µM in assay [38]. The minimal inhibitory concentration (MIC) in assay [39] was above 50 µM; in assay [40], 6.2 µM (≈ 9.61 µg/mL); in [41], 3.1 µM (≈ 4.8 µg/mL); in [42], 25 µM (≈ 38.7 µg/mL); in assay [43], 3.1 µM (≈ 4.8 µg/mL); in assay [44] it was 3.1 µM (≈ 4.8 µg/mL). In addition, the MIC in assay [45] and in assay [46] was 3.1 µM (≈ 4.8 µg/mL) throughout.
